Data: patent US10738007B2, “Amide compounds as kinase inhibitors, compositions and methods of treatment” (TRANSLATIONAL DRUG DEVELOPMENT, LLC, priority 2016, dated 2020)

Assays:
MV411 cell line = assay: Cell viability assay ([…]-GLO), MV411; assay type: cell-based; details: for IC50: Homo sapiens, MV4-11, MV411 (ITD-FLT3+), 72 hours treatment; for FLT3-ITD+ Selectivity (K562/MV411): ratio K562/MV411
Procedure: Cell viability was measured by the […] -GlO® cell viability assay from Promega (Madison, Wis.). The […] -GlO Luminescent Cell Viability Assay is a homogeneous method to determine the number of viable cells in culture based on quantitation of the ATP present, which signals the presence of metabolically active cells. Following treatment, […] -GlO® is added to treatment wells and incubated at 37° C. Luminescence values were measured at using a Molecular Devices Spectramax microplate reader.

K562 cell line = assay: Cell viability assay ([…]-GLO), K562; assay type: cell-based; details: Homo sapiens; K562 (does not express ITD-FLT3), 72 hours treatment
Procedure: Cell viability in the presence of varying concentrations of the above listed compounds at different time points was used to assess cytotoxicity and the effect of the compounds on cell proliferation.
Cell viability was measured by the […]-GlO® cell viability assay from Promega (Madison, Wis.). The […]-GlO Luminescent Cell Viability Assay is a homogeneous method to determine the number of viable cells in culture based on quantitation of the ATP present, which signals the presence of metabolically active cells. Following treatment, […]-GlO® is added to treatment wells and incubated at 37° C. Luminescence values were measured at using a Molecular Devices Spectramax microplate reader.
Cells were grown to 70% confluency, trypsinized, counted, and seeded in 96 well flat-bottom plates at a final concentration of 2.5×10^3-5×10^3 cells/well (Day 0). Cells were allowed to incubate in growth media for 24 hours. Treatment with the test agents or standard agents began on Day 1 and continued for 72 hours. At the 72-hour time point, treatment containing media was removed. Viable cell numbers were quantified by the […]-GLO® cell viability assay as described above. Results from these studies were used to calculate an IC50 value (concentration of drug that inhibits cell growth by 50 percent of control) for each compound.
For single agent and combination studies, data from each experiment was collected and expressed as % Cell Growth using the following calculation: % Cell Growth=(ftest/fvehicle)×100
Where ftest is the luminescence of the tested sample, and fvehicle is the luminescence of the vehicle in which the drug is dissolved. Dose response graphs and IC50 values were generated using Prism 6 software (GraphPad) using the following equation: Y=(Top−Bottom)/(1+10^((logIC50-X)−HillSlope))
Where X is the logarithm of the concentration and Y is the response. Y starts at the Bottom and goes to the Top with a sigmoid shape.
The experiments also evaluated the selectivity of the compounds for inhibiting growth of cancer cells carrying a mutation in the Flt3 gene. The MV411 cell line expresses the mutant allele of Flt3 with internal tandem duplications (ITD) of the gene. See Quentmeier et al., “FLT3 Mutations in Acute Myeloid Leukemia Cell Lines,” Leukemia 17(1), 2003, 120-124. […] See Grafone et al., “Monitoring of FLT3 Phosphorylation Status and Its Response to Drugs By Flow Cytometry in AML Blast Cells,” Hematol Oncol. 26(3), 2008, 159-166.

ROCK2 = ROCK2 (Homo sapiens (Human), UniProt O75116); assay: ROCK2 kinase inhibition assay (peptide phosphorylation, LABCHIP 3000); assay type: biochemical; details: 7 μM ATP, 2.5 nM ROCK2, 3 hours at 25° C.
Chain of ROCK2 (O75116 whole entry, species assumed): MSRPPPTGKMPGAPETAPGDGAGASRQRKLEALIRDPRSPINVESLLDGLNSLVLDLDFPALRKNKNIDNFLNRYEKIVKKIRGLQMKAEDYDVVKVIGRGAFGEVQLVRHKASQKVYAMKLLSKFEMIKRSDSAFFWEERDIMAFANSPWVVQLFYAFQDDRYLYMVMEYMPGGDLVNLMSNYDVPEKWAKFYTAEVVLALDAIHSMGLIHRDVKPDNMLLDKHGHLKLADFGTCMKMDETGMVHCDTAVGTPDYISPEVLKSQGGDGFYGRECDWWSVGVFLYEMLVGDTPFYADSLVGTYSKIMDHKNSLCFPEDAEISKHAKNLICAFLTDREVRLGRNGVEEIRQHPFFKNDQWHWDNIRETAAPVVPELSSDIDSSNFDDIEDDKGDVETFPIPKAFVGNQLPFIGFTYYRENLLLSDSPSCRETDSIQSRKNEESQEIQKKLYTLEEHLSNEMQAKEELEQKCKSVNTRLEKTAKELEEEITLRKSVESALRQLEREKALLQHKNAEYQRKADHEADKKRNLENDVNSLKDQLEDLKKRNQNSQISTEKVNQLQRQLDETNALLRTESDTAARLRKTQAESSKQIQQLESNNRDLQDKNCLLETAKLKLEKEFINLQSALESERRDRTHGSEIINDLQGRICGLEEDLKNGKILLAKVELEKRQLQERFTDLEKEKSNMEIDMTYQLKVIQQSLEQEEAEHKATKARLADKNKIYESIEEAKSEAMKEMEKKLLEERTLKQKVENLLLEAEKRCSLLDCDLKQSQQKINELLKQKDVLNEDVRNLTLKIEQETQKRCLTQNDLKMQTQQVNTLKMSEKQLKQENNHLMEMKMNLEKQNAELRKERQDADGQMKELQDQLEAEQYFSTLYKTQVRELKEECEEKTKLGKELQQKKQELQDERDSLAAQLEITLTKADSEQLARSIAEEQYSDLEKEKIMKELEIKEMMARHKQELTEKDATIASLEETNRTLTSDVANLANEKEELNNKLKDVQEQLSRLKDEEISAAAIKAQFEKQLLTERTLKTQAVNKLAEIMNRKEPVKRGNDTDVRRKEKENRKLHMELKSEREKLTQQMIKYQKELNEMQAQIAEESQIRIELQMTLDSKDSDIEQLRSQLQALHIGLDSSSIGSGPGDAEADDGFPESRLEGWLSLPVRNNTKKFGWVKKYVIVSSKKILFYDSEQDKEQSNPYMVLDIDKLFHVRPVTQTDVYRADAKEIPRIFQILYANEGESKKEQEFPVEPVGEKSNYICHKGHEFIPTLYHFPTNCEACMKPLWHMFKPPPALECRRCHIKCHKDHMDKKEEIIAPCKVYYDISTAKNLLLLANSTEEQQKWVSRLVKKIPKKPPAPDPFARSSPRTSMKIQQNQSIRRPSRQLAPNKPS

IC50 (MV411 cell line) [nM] | IC50 (K562 cell line) [nM] | IC50 (ROCK2) [nM] | SMILES | FLT3-ITD+ Selectivity (K562/MV411) (MV411 cell line)
100 | > 100000 | 0.33 | CN1CCC(NC(=O)c2cccc([C@@H](CO)NC(=O)c3ccc(-c4ccncc4)cc3)c2)CC1 [Compound 50] | >1010
1450 | > 100000 | 4.38 | O=C(NC1CCCC1)c1cccc([C@@H](CO)NC(=O)c2ccc(-c3ccncc3)cn2)c1 [Compound 51] | >70
120 | > 100000 | 0.61 | CN(C)C1CCC(NC(=O)c2cccc([C@@H](CO)NC(=O)c3ccc(-c4ccncc4)cc3)c2)CC1 (some centres unmarked) [Compound 52] | >842
220 | > 100000 | 0.66 | O=C(NC1CCC(F)(F)CC1)c1cccc([C@@H](CO)NC(=O)c2ccc(-c3ccncc3)cc2)c1 [Compound 53] | >459
70 | > 100000 | 0.54 | O=C(NC1CCN(C2CC2)CC1)c1cccc([C@@H](CO)NC(=O)c2ccc(-c3ccncc3)cc2)c1 [Compound 54] | >1443
120 | > 100000 | 0.47 | CC(C)N1CCC(NC(=O)c2cccc([C@@H](CO)NC(=O)c3ccc(-c4ccncc4)cc3)c2)CC1 [Compound 55] | >842
90 | > 100000 | 0.31 | CC(C)N1CCC(CNC(=O)c2cccc([C@@H](CO)NC(=O)c3ccc(-c4ccncc4)cc3)c2)CC1 [Compound 56] | >1122
90 | > 100000 | 0.63 | CN1CCC(C)(CNC(=O)c2cccc([C@@H](CO)NC(=O)c3ccc(-c4ccncc4)cc3)c2)CC1 [Compound 57] | >1122
40 | > 100000 | 0.44 | O=C(NCC1CCN(C2CC2)CC1)c1cccc([C@@H](CO)NC(=O)c2ccc(-c3ccncc3)cc2)c1 [Compound 58] | >2525
280 | > 100000 | 0.46 | CCN1CCC(CNC(=O)c2cccc([C@@H](CO)NC(=O)c3ccc(-c4ccncc4)cc3)c2)CC1 [Compound 59] | >361
40 | > 100000 | 0.53 | CC(C)N1CCC(CNC(=O)c2cccc([C@@H](C)NC(=O)c3ccc(-c4ccncc4)cc3)c2)CC1 [Compound 60] | >2525
2500 | > 100000 | 2.12 | O=C(NC1CCCC1)c1cccc([C@@H](CO)NC(=O)c2cc(-c3ccncc3)n[nH]2)c1 [Compound 61] | >40
1030 | 65000 | 2.85 | CC(C)NC(=O)c1cccc([C@@H](CO)NC(=O)c2ccc(-c3ccncc3)cc2)c1 [Compound 62] | 63
70 | 28000 | 0.6 | COc1cccc(CNC(=O)c2cccc([C@@H](CO)NC(=O)c3ccc(-c4ccncc4)cc3)c2)c1 [Compound 65] | 393
130 | 36000 | 0.6 | O=C(NCC1CCC1)c1cccc([C@@H](CO)NC(=O)c2ccc(-c3ccncc3)cc2)c1 [Compound 66] | 279
2670 | 41000 | 9.1 | COCC1(NC(=O)c2cccc([C@@H](CO)NC(=O)c3ccc(-c4ccncc4)cc3)c2)CCCC1 [Compound 67] | 15
150 | 52000 | 0.7 | O=C(NCC1(O)CCCCC1)c1cccc([C@@H](CO)NC(=O)c2ccc(-c3ccncc3)cc2)c1 [Compound 69] | 350
